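Interpolation was linear, between the two tested concentrations surrounding the appropriate level; five concentrations were tested over 48 hours in 96-well plates. The concentration for full growth arrest is given as TGI.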
Experiments:
Experiment in all cases: NCI tumour cell line growth inhibition, 48 h
SR leukemia = system: SR leukemia
SK-MEL-5 melanoma = system: SK-MEL-5 melanoma
A498 renal = system: A498 renal
NCI-H226 lung = system: NCI-H226 lung
HT29 colon = system: HT29 colon
NCI-H23 lung = system: NCI-H23 lung
NCI-H460 lung = system: NCI-H460 lung
SK-OV-3 ovarian = system: SK-OV-3 ovarian
M14 melanoma = system: M14 melanoma
HCT-116 colon = system: HCT-116 colon
COLO 205 colon = system: COLO 205 colon
UACC-257 melanoma = system: UACC-257 melanoma
SK-MEL-28 melanoma = system: SK-MEL-28 melanoma
CCRF-CEM leukemia = system: CCRF-CEM leukemia
HOP-62 NSCLC = system: HOP-62 NSCLC
NCI-H522 lung = system: NCI-H522 lung
NCI/ADR-RES ovarian = system: NCI/ADR-RES ovarian
HCC-2998 colon = system: HCC-2998 colon
SNB-19 CNS = system: SNB-19 CNS
RXF 393 renal = system: RXF 393 renal
BT-549 breast = system: BT-549 breast
A549 NSCLC = system: A549 NSCLC
SF-295 CNS = system: SF-295 CNS
HL-60(TB) leukemia = system: HL-60(TB) leukemia
OVCAR-5 ovarian = system: OVCAR-5 ovarian
MDA-MB-435 = system: MDA-MB-435
SNB-75 CNS = system: SNB-75 CNS
MDA-N = system: MDA-N
CAKI-1 renal = system: CAKI-1 renal
ACHN renal = system: ACHN renal
OVCAR-4 ovarian = system: OVCAR-4 ovarian
EKVX NSCLC = system: EKVX NSCLC
SN12C renal = system: SN12C renal
PC-3 prostate = system: PC-3 prostate
MALME-3M melanoma = system: MALME-3M melanoma
MCF7 breast = system: MCF7 breast
SK-MEL-2 melanoma = system: SK-MEL-2 melanoma
OVCAR-3 ovarian = system: OVCAR-3 ovarian
UO-31 renal = system: UO-31 renal
OVCAR-8 ovarian = system: OVCAR-8 ovarian
SW-620 colon = system: SW-620 colon
SF-268 CNS = system: SF-268 CNS
T-47D breast = system: T-47D breast
TK-10 renal = system: TK-10 renal
UACC-62 melanoma = system: UACC-62 melanoma
IGROV1 ovarian = system: IGROV1 ovarian
HS 578T breast = system: HS 578T breast
HOP-92 NSCLC = system: HOP-92 NSCLC
SF-539 CNS = system: SF-539 CNS
786-0 renal = system: 786-0 renal
MDA-MB-231 breast = system: MDA-MB-231 breast
DU-145 prostate = system: DU-145 prostate
KM12 colon = system: KM12 colon
HCT-15 colon = system: HCT-15 colon
MOLT-4 leukemia = system: MOLT-4 leukemia
U251 CNS = system: U251 CNS
LOX IMVI melanoma = system: LOX IMVI melanoma
K-562 leukemia = system: K-562 leukemia
RPMI-8226 leukemia = system: RPMI-8226 leukemia

With `O=C(c1ccsc1)c1cc2c(s1)C(=O)c1ccsc1C2=O` the TGI (SR leukemia) was greater than 100 µM, the TGI (SK-MEL-5 melanoma) was 0.104 µM and the TGI (A498 renal) was 2.94 µM. It also gave a TGI (NCI-H226 lung) of 1.11 µM, a TGI (HT29 colon) of 4.08 µM and a TGI (NCI-H23 lung) of 0.308 µM. It also gave a TGI (NCI-H460 lung) of 0.367 µM, a TGI (SK-OV-3 ovarian) of 3.09 µM and a TGI (M14 melanoma) of 0.247 µM. It also gave a TGI (HCT-116 colon) of 0.468 µM, a TGI (COLO 205 colon) of 2.97 µM and a TGI (UACC-257 melanoma) of 0.324 µM. The TGI (SK-MEL-28 melanoma) was 0.305 µM, the TGI (CCRF-CEM leukemia) was greater than 100 µM and the TGI (HOP-62 NSCLC) was 0.431 µM. For the same compound, the TGI (NCI-H522 lung) was 0.323 µM, the TGI (NCI/ADR-RES ovarian) was 0.407 µM and the TGI (HCC-2998 colon) was 1.56 µM. For the same compound, the TGI (SNB-19 CNS) was 0.354 µM, the TGI (RXF 393 renal) was 0.385 µM and the TGI (BT-549 breast) was 0.198 µM. The TGI (A549 NSCLC) was 1.25 µM, the TGI (SF-295 CNS) was 0.324 µM and the TGI (HL-60(TB) leukemia) was greater than 100 µM. For the same compound, the TGI (OVCAR-5 ovarian) was 1.01 µM, the TGI (MDA-MB-435) was 0.0696 µM and the TGI (SNB-75 CNS) was 0.311 µM. The TGI (MDA-N) was 0.0512 µM, the TGI (CAKI-1 renal) was 1.57 µM and the TGI (ACHN renal) was 0.241 µM. For the same compound, the TGI (OVCAR-4 ovarian) was 0.335 µM, the TGI (EKVX NSCLC) was 0.373 µM and the TGI (SN12C renal) was 0.125 µM. For the same compound, the TGI (PC-3 prostate) was 0.933 µM, the TGI (MALME-3M melanoma) was 0.0845 µM and the TGI (MCF7 breast) was 0.383 µM. For the same compound, the TGI (SK-MEL-2 melanoma) was 0.982 µM, the TGI (OVCAR-3 ovarian) was 0.392 µM and the TGI (UO-31 renal) was 0.25 µM. The TGI (OVCAR-8 ovarian) was 0.424 µM, the TGI (SW-620 colon) was 0.341 µM and the TGI (SF-268 CNS) was 0.405 µM. It also gave a TGI (T-47D breast) of 0.675 µM, a TGI (TK-10 renal) of 1.25 µM and a TGI (UACC-62 melanoma) of 0.385 µM. For the same compound, the TGI (IGROV1 ovarian) was 0.403 µM, the TGI (HS 578T breast) was 0.549 µM and the TGI (HOP-92 NSCLC) was 1.25 µM. The TGI (SF-539 CNS) was 0.138 µM, the TGI (786-0 renal) was 0.356 µM and the TGI (MDA-MB-231 breast) was 0.496 µM. For the same compound, the TGI (DU-145 prostate) was 0.296 µM, the TGI (KM12 colon) was 0.434 µM and the TGI (HCT-15 colon) was 0.305 µM. It also gave a TGI (MOLT-4 leukemia) greater than 100 µM and a TGI (U251 CNS) of 0.34 µM.

In the case of `O=[N+]([O-])c1nccn1CCCN=c1c2ccccc2n(O)c2ccccc12`, the TGI (SR leukemia) is reported as greater than 100 µM, the TGI (SK-MEL-5 melanoma) is reported as greater than 100 µM and the TGI (A498 renal) is reported as greater than 100 µM. For the same compound, the TGI (NCI-H226 lung) was greater than 100 µM, the TGI (HT29 colon) was greater than 100 µM and the TGI (NCI-H23 lung) was greater than 100 µM. The TGI (NCI-H460 lung) was greater than 100 µM, the TGI (SK-OV-3 ovarian) was greater than 100 µM and the TGI (M14 melanoma) was greater than 100 µM. For the same compound, the TGI (HCT-116 colon) was greater than 100 µM, the TGI (COLO 205 colon) was 55.6 µM and the TGI (UACC-257 melanoma) was greater than 100 µM. It also gave a TGI (SK-MEL-28 melanoma) greater than 100 µM, a TGI (CCRF-CEM leukemia) greater than 100 µM and a TGI (HOP-62 NSCLC) greater than 100 µM. The TGI (NCI-H522 lung) was greater than 100 µM, the TGI (NCI/ADR-RES ovarian) was greater than 100 µM and the TGI (RXF 393 renal) was greater than 100 µM. The TGI (BT-549 breast) was greater than 100 µM, the TGI (A549 NSCLC) was greater than 100 µM and the TGI (SF-295 CNS) was greater than 100 µM. It also gave a TGI (HL-60(TB) leukemia) greater than 100 µM, a TGI (OVCAR-5 ovarian) greater than 100 µM and a TGI (MDA-MB-435) greater than 100 µM. For the same compound, the TGI (SNB-75 CNS) was greater than 100 µM, the TGI (MDA-N) was greater than 100 µM and the TGI (CAKI-1 renal) was greater than 100 µM. The TGI (ACHN renal) was greater than 100 µM, the TGI (OVCAR-4 ovarian) was greater than 100 µM and the TGI (EKVX NSCLC) was greater than 100 µM. For the same compound, the TGI (SN12C renal) was greater than 100 µM, the TGI (PC-3 prostate) was greater than 100 µM and the TGI (MALME-3M melanoma) was greater than 100 µM. It also gave a TGI (MCF7 breast) greater than 100 µM, a TGI (SK-MEL-2 melanoma) greater than 100 µM and a TGI (OVCAR-3 ovarian) greater than 100 µM. For the same compound, the TGI (UO-31 renal) was greater than 100 µM, the TGI (OVCAR-8 ovarian) was greater than 100 µM and the TGI (SW-620 colon) was greater than 100 µM. For the same compound, the TGI (SF-268 CNS) was greater than 100 µM, the TGI (T-47D breast) was greater than 100 µM and the TGI (TK-10 renal) was greater than 100 µM. For the same compound, the TGI (UACC-62 melanoma) was greater than 100 µM, the TGI (IGROV1 ovarian) was greater than 100 µM and the TGI (HS 578T breast) was greater than 100 µM. The TGI (HOP-92 NSCLC) was greater than 100 µM, the TGI (SF-539 CNS) was greater than 100 µM and the TGI (786-0 renal) was greater than 100 µM. The TGI (LOX IMVI melanoma) was greater than 100 µM, the TGI (MDA-MB-231 breast) was greater than 100 µM and the TGI (DU-145 prostate) was greater than 100 µM. The TGI (KM12 colon) was greater than 100 µM, the TGI (K-562 leukemia) was greater than 100 µM and the TGI (RPMI-8226 leukemia) was greater than 100 µM. The TGI (HCT-15 colon) was greater than 100 µM, the TGI (MOLT-4 leukemia) was greater than 100 µM and the TGI (U251 CNS) was greater than 100 µM.

`Nc1nc(N)nc(-c2cnc3ccccc3c2)n1` was tested, and the TGI (SR leukemia) was greater than 100 µM, the TGI (A498 renal) was greater than 100 µM and the TGI (NCI-H226 lung) was greater than 100 µM. It also gave a TGI (NCI-H23 lung) greater than 100 µM, a TGI (NCI-H460 lung) greater than 100 µM and a TGI (SK-OV-3 ovarian) greater than 100 µM. The TGI (M14 melanoma) was greater than 100 µM, the TGI (HCT-116 colon) was greater than 100 µM and the TGI (COLO 205 colon) was greater than 100 µM. For the same compound, the TGI (UACC-257 melanoma) was greater than 100 µM, the TGI (SK-MEL-28 melanoma) was greater than 100 µM and the TGI (CCRF-CEM leukemia) was 65.9 µM. The TGI (HOP-62 NSCLC) was greater than 100 µM, the TGI (NCI-H522 lung) was greater than 100 µM and the TGI (NCI/ADR-RES ovarian) was greater than 100 µM. It also gave a TGI (HCC-2998 colon) greater than 100 µM, a TGI (SNB-19 CNS) greater than 100 µM and a TGI (RXF 393 renal) greater than 100 µM. The TGI (BT-549 breast) was greater than 100 µM, the TGI (A549 NSCLC) was greater than 100 µM and the TGI (SF-295 CNS) was greater than 100 µM. For the same compound, the TGI (OVCAR-5 ovarian) was greater than 100 µM, the TGI (MDA-MB-435) was greater than 100 µM and the TGI (SNB-75 CNS) was greater than 100 µM. For the same compound, the TGI (MDA-N) was greater than 100 µM, the TGI (CAKI-1 renal) was greater than 100 µM and the TGI (ACHN renal) was greater than 100 µM. It also gave a TGI (EKVX NSCLC) greater than 100 µM, a TGI (SN12C renal) greater than 100 µM and a TGI (PC-3 prostate) greater than 100 µM. For the same compound, the TGI (MALME-3M melanoma) was greater than 100 µM, the TGI (MCF7 breast) was greater than 100 µM and the TGI (SK-MEL-2 melanoma) was greater than 100 µM. For the same compound, the TGI (OVCAR-3 ovarian) was greater than 100 µM, the TGI (UO-31 renal) was greater than 100 µM and the TGI (OVCAR-8 ovarian) was greater than 100 µM. For the same compound, the TGI (SW-620 colon) was greater than 100 µM, the TGI (SF-268 CNS) was greater than 100 µM and the TGI (T-47D breast) was greater than 100 µM. It also gave a TGI (TK-10 renal) greater than 100 µM, a TGI (UACC-62 melanoma) greater than 100 µM and a TGI (IGROV1 ovarian) greater than 100 µM. It also gave a TGI (HS 578T breast) greater than 100 µM, a TGI (HOP-92 NSCLC) greater than 100 µM and a TGI (SF-539 CNS) greater than 100 µM. It also gave a TGI (786-0 renal) greater than 100 µM, a TGI (LOX IMVI melanoma) greater than 100 µM and a TGI (MDA-MB-231 breast) greater than 100 µM. It also gave a TGI (DU-145 prostate) greater than 100 µM, a TGI (KM12 colon) greater than 100 µM and a TGI (K-562 leukemia) greater than 100 µM. The TGI (HCT-15 colon) was greater than 100 µM, the TGI (MOLT-4 leukemia) was greater than 100 µM and the TGI (U251 CNS) was greater than 100 µM.

— PubChem BioAssay (NCI)
